≈ marks a conversion by molar mass, not a printed value. Where a SMILES comes first, the peptide text is derived from it. [ ]: non-standard residue; d: D form. The star is where a group is joined. Undecanoyl = CCCCCCCCCCC(=O)*; Nlys = NCCCCNCC(=O)O
How the values were obtained:
S.aureus ATCC 29213 = type: cell-based, Staphylococcus aureus; settings: ATCC 29213, 24 h
Experimental: (§1) Antimicrobial activity of the purified lipopeptoids was determined without replication against a panel of clinically relevant and standard reference bacterial strains according to CLSI macrobroth standards. Stock solutions at 512 µg/mL were prepared in water, with DMSO as needed, and testing was performed in glass test tubes using Muller-Hinton broth and bacteria adjusted to 5 × 10^5 CFU/mL. Bacteria were incubated with the lipopeptoid of interest for 24 hr at 37°C prior to reading.
(§2) The bacteria Staphylococcus aureus ATCC 29213, methicillin-resistant S. aureus ATCC 33592, Staphylococcus epidermidis ATCC 14990, Enterococcus faecalis ATCC 29212, E. faecium ATCC 27270, Streptococcus pneumoniae ATCC 49619, Escherichia coli ATCC 25922, Pseudomonas aeruginosa ATCC 27853, and Klebsiella pneumoniae ATCC 13883 were acquired from the American Type Culture Collection (ATCC) and used as quality controls. The clinical strains methicillin-resistant S. epidermidis (MRSE) CAN-ICU 61589, E. coli CAN-ICU 61714, E. coli CAN-ICU 63074, P. aeruginosa CAN-ICU 62308, Stenotrophomonas maltophilia CAN-ICU 62584, Acinetobacter baumannii CAN-ICU 63169 were obtained from hospitals across Canada as part of the CAN-ICU studies, while methicillin-susceptible S. epidermidis (MSSE) 81388 was obtained from the 2008 CANWARD study.
(§3) After subculturing the relevant bacteria twice from frozen stock, in vitro activities of the antimicrobials were determined by macrobroth dilution methodology in accordance with the Clinical and Laboratory Standards Institute (CLSI) guidelines (3). The MICs were determined using glass test tubes (2 mL/tube) containing doubling antimicrobial dilutions of cation adjusted Mueller-Hinton broth inoculated to achieve a final concentration of approximately 5 x 10^5 CFU/mL, incubated in ambient air for 24 hr prior to reading. Colony counts were performed periodically to confirm inocula. The ATCC organisms […] ATCC 49619, Staphylococcus aureus ATCC 29213, Enterococcus faecalis ATCC 29212, Escherichia coli ATCC 25922, and Pseudomonas aeruginosa ATCC 27853 were used as quality control and to allow easy comparison to previously tested antimicrobials. Each test in this series was performed without replication. In our experience with cationic amphiphiles the results are accurate to within a single doubling.

MRSA ATCC 33592 = type: cell-based, methicillin-resistant S. aureus; settings: ATCC 33592, 24 h
Experimental: as §1, §2, §3

MSSE 81388 CANWARD 2008 = type: cell-based, methicillin-susceptible S. epidermidis; settings: 24 h
Experimental: as §1, §2, §3

MRSE CAN-ICU 61589 = type: cell-based, methicillin-resistant S. epidermidis; settings: CAN-ICU 61589, 24 h
Experimental: as §1, §2, §3

E. faecalis ATCC 29212 = type: cell-based, Enterococcus faecalis; settings: ATCC 29212, 24 h
Experimental: as §1, §2, §3

S.pneumoniae ATCC 49619 = type: cell-based, Streptococcus pneumoniae; settings: ATCC 49619, 24 h
Experimental: as §1, §2, §3

P.aeruginosa ATCC 27853 = type: cell-based, Pseudomonas aeruginosa; settings: ATCC 27853, 24 h
Experimental: as §1, §2, §3

[1] = system: P.aeruginosa CAN-ICU 62308; type: cell-based, Pseudomonas aeruginosa; settings: CAN-ICU 62308, 24 h
Experimental: as §1, §2, §3

[2] = system: S. maltophilia CAN-ICU 62584; type: cell-based, Stenotrophomonas maltophilia; settings: CAN-ICU 62584, 24 h
Experimental: as §1, §2, §3

[3] = system: A. baumannii CAN-ICU 63169; type: cell-based, Acinetobacter baumannii; settings: CAN-ICU 63169, 24 h
Experimental: as §1, §2, §3

K.pneumoniae ATCC 13883 = type: cell-based, Klebsiella pneumoniae; settings: ATCC 13883, 24 h
Experimental: as §1, §2, §3

ovine erythrocytes = test: Haemolytic assay; type: cell-based, sheep; settings: ovine erythrocytes in Tris buffered saline, 30 minutes, absorbance of supernatant at 540 nm
Experimental: Mammalian cell toxicity was determined by measuring lysis of ovine erythrocytes, a standard model for human cell toxicity. Cells were prewashed with Tris buffered saline and then incubated with a variety of lipopeptoid concentrations for 30 minutes. Following centrifugation, lysis was evaluated by testing the absorbance of the solution at 540 nm, with 0.5% NH4OH used as a positive control.
Toxicity to mammalian cells was determined using a sheep red blood cell (erythrocyte) haemolytic assay (4). Erythrocytes were washed and resuspended in Tris buffered saline prior to use, at a concentration of 1.46 - 4.5 x 10^9 cells/mL (on average 3.08 x 10^9 cells/mL). The cell suspension was diluted with varying concentrations of antimicrobials, from 50 μg/mL to 1 mg/mL and incubated for thirty minutes (final erythrocyte concentration 4.08 x 10^8 cells/mL). The samples were centrifuged following treatment and the absorbance of the supernatant was measured at 540 nm. A solution of 0.5% […] was used as a positive control, with normal buffered solution as the negative control. The toxicity was assessed as a function of percent haemolysis.

E.coli ATCC 25922 = type: cell-based, Escherichia coli; settings: ATCC 25922, 24 h
Experimental: as §1, §2, §3

E.coli CAN-ICU 61714 = type: cell-based, Escherichia coli; settings: CAN-ICU 61714, 24 h
Experimental: as §1, §2, §3

E.coli CAN-ICU 63074 = type: cell-based, Escherichia coli; settings: CAN-ICU 63074, 24 h
Experimental: as §1, §2, §3

E. faecium ATCC 27270 = type: cell-based; settings: ATCC 27270, 24 h
Experimental: as §1, §2, §3

[4] = system: panel of clinically relevant and laboratory reference bacteria; test: Antimicrobial activity over the whole bacterial panel; type: cell-based; settings: Gram positive and Gram negative strains, no BSA
Experimental: as §1, with “reading. […]” for “reading.”
After subculturing the relevant bacteria twice from frozen stock, in vitro activities of the antimicrobials were determined by macrobroth dilution methodology in accordance with the Clinical and Laboratory Standards Institute (CLSI) guidelines (3). The MICs were determined using glass test tubes (2 mL/tube) containing doubling antimicrobial dilutions of cation adjusted Mueller-Hinton broth inoculated to achieve a final concentration of approximately 5 x 10^5 CFU/mL, incubated in ambient air for 24 hr prior to reading. […]

Compound | MIC S.aureus (S.aureus ATCC 29213) [µg/mL] | MIC S.aureus in the presence of 4% bovine serum albumin (S.aureus ATCC 29213) [µg/mL] | MIC MRSA (MRSA ATCC 33592) [µg/mL] | MIC MRSA in the presence of 4% bovine serum albumin (MRSA ATCC 33592) [µg/mL] | MIC MSSE (MSSE 81388 CANWARD 2008) [µg/mL] | MIC MSSE in the presence of 4% bovine serum albumin (MSSE 81388 CANWARD 2008) [µg/mL] | MIC MRSE (MRSE CAN-ICU 61589) [µg/mL] | MIC MRSE in the presence of 4% bovine serum albumin (MRSE CAN-ICU 61589) [µg/mL] | MIC E. faecalis (E. faecalis ATCC 29212) [µg/mL] | MIC E. faecalis in the presence of 4% bovine serum albumin (E. faecalis ATCC 29212) [µg/mL] | MIC S.pneumoniae (S.pneumoniae ATCC 49619) [µg/mL] | MIC S.pneumoniae in the presence of 4% bovine serum albumin (S.pneumoniae ATCC 49619) [µg/mL] | MIC P.aeruginosa (P.aeruginosa ATCC 27853) [µg/mL] | MIC P.aeruginosa in the presence of 4% bovine serum albumin (P.aeruginosa ATCC 27853) [µg/mL] | MIC P.aeruginosa [1] [µg/mL] | MIC P.aeruginosa in the presence of 4% bovine serum albumin [1] [µg/mL] | MIC S. maltophilia [2] [µg/mL] | MIC S. maltophilia in the presence of 4% bovine serum albumin [2] [µg/mL] | MIC A. baumannii [3] [µg/mL] | MIC A. baumannii in the presence of 4% bovine serum albumin [3] [µg/mL] | further results
CCCCCCCCCCC(=O)N(CCCCN)CC(=O)NCC(=O)N(CCCCN)CC(N)=O [C11-NlysGNlys] (Undecanoyl-[Nlys]-Gly-[Nlys]-NH2) | 512 (≈ 1030 µM) | >512 | 512 (≈ 1030 µM) | >512 | 256 (≈ 513 µM) | 512 | 256 (≈ 513 µM) | 512 | 512 (≈ 1030 µM) | >512 | 512 (≈ 1030 µM) | 512 | >512 | >512 | >512 | >512 | >512 | >512 | >512 | >512 | MIC K.pneumoniae (K.pneumoniae ATCC 13883): >512 µg/mL; MIC K.pneumoniae in the presence of 4% bovine serum albumin (K.pneumoniae ATCC 13883): >512 µg/mL; Percent haemolysis at 100µg/mL of compound (ovine erythrocytes): 1.34%; MIC E.coli (E.coli ATCC 25922): >512 µg/mL; MIC E.coli in the presence of 4% bovine serum albumin (E.coli ATCC 25922): >512 µg/mL; MIC E.coli (E.coli CAN-ICU 61714): >512 µg/mL; MIC E.coli in the presence of 4% bovine serum albumin (E.coli CAN-ICU 61714): >512 µg/mL; MIC E.coli (E.coli CAN-ICU 63074): >512 µg/mL; MIC E.coli in the presence of 4% bovine serum albumin (E.coli CAN-ICU 63074): >512 µg/mL; MIC E. faecium (E. faecium ATCC 27270): 512 µg/mL (≈ 1030 µM); MIC E. faecium in the presence of 4% bovine serum albumin (E. faecium ATCC 27270): >512 µg/mL; Antimicrobial activity over the panel (in words) [4]: broadly inactive
CCCCCCCCCCC(=O)N(CCCCN)CC(=O)N(CCCCN)CC(=O)N(CCCCN)CC(N)=O [C11-NlysNlysNlys] | 512 (≈ 899 µM) | >512 | 512 (≈ 899 µM) | >512 | 512 (≈ 899 µM) | 512 | 512 (≈ 899 µM) | 512 | 512 (≈ 899 µM) | >512 | >512 | >512 | >512 | >512 | >512 | >512 | >512 | >512 | >512 | >512 | MIC K.pneumoniae (K.pneumoniae ATCC 13883): >512 µg/mL; MIC K.pneumoniae in the presence of 4% bovine serum albumin (K.pneumoniae ATCC 13883): >512 µg/mL; Percent haemolysis at 100µg/mL of compound (ovine erythrocytes): 0.67%; MIC E.coli (E.coli ATCC 25922): >512 µg/mL; MIC E.coli in the presence of 4% bovine serum albumin (E.coli ATCC 25922): >512 µg/mL; MIC E.coli (E.coli CAN-ICU 61714): >512 µg/mL; MIC E.coli in the presence of 4% bovine serum albumin (E.coli CAN-ICU 61714): >512 µg/mL; MIC E.coli (E.coli CAN-ICU 63074): >512 µg/mL; MIC E.coli in the presence of 4% bovine serum albumin (E.coli CAN-ICU 63074): >512 µg/mL; MIC E. faecium (E. faecium ATCC 27270): 256 µg/mL (≈ 449 µM); MIC E. faecium in the presence of 4% bovine serum albumin (E. faecium ATCC 27270): 512 µg/mL; Antimicrobial activity over the panel (in words) [4]: broadly inactive

From article PMC3402541, “Guanidylation and Tail Effects in Cationic Antimicrobial Lipopeptoids” (PLoS ONE, 2012)
